Measurements reported in ChEMBL document CHEMBL2331159, “Radiolytic transformation of rotenone with potential anti-adipogenic activity” (Bioorg Med Chem Lett, 2013).

Legend:
[1] = biological target: T1, Pancreatic triacylglycerol lipase (Sus scrofa, UniProt P00591); assay: (§1) Inhibition of pig pancreatic lipase assessed as hydrolysis of p-nitrophenylbutyrate to p-nitrophenol
T1 sequence (P00591 whole entry): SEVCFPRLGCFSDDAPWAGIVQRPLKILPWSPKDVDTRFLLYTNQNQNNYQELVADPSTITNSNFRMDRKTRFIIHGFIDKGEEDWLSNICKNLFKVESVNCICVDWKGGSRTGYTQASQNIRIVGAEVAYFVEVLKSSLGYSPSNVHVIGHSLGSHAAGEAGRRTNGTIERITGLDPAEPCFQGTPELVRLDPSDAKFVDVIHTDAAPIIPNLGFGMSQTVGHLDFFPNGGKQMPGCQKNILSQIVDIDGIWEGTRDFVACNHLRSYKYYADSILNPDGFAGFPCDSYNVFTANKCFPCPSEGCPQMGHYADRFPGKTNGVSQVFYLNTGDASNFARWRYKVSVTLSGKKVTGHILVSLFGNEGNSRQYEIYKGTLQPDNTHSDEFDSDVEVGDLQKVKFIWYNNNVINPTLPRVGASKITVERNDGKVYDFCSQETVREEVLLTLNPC

[2] = system: 3T3-L1; assay: Cytotoxicity against mouse 3T3L1 cells assessed as cell viability at 0.02 to 20 uM by MTT assay; type: cell-based; conditions: 3t3-l1, 20 µM
[3] = system: 3T3-L1; assay: Antiadipogenic activity against mouse 3T3L1 cells assessed as inhibition of lipid deposition at 2 uM by Oil Red O staining; type: functional
[4] = system: 3T3-L1; assay: Cytotoxicity against mouse 3T3L1 cells assessed as cell viability upto 2 uM by MTT assay; type: cell-based
[5] = biological target: T2, Pancreatic triacylglycerol lipase (Sus scrofa) (UniProt P00591); assay: as §1
T2 sequence (whole entry): T1 sequence (P00591 whole entry)

SMILES | IC50 [1] | Activity [2] | inhibition at 2 µM [3] | Activity [4] | inhibition [5]
C=C(C)[C@H]1Cc2c(ccc3c2O[C@@H]2COc4cc(OC)c(OC)cc4[C@@H]2C3=O)O1 (stereo in doubt) [ROTENONE] | 79.1 µM | – | – | – | –
C=C(C)[C@H]1Cc2c(ccc3c2O[C@@H]2COc4cc(OC)c(OC)cc4[C@@H]2C3=O)O1 (stereo in doubt; 1) [ROTENONE] | > 500 µM | Toxic | – | – | –
C=C(C)[C@H]1Cc2c(ccc3c2O[C@@H]2COc4cc(OC)c(OC)cc4[C@@H]2[C@@]32CO2)O1 [ROTENOISIN A] | 6.3 µM | – | 70% | Non-toxic | Dose-dependent effect
C=C(C)[C@H]1Cc2c(ccc3c2O[C@@H]2COc4cc(OC)c(OC)cc4[C@@H]2[C@]32C[C@H]3O[C@@]3(O)[C@H](O)O2)O1 [ROTENOISIN B] | 28.4 µM | – | 70% | Non-toxic | –
